The record followed here is article PMC11242993, “Evaluation of the Therapeutic Potential of Sulfonyl Urea Derivatives as Soluble Epoxide Hydrolase (sEH) Inhibitors” (Molecules, 2024).

Values after ≈ are worked out from the molar mass of the structure shown.

One data set is described as follows: Caco-2 permeability. It counts as in vitro ADME. To be noted: human, Caco-2, pH 7.4. On the procedure:
Caco-2 cells were cultured in 75 cm^2 flasks to 80–90% confluence according to the ATCC and Millipore recommendations in a humidified atmosphere at 37 °C and 5% CO2. Cells were detached with a trypsin/EDTA solution, resuspended in the complete medium containing DMEM high glucose ([…]) with L-glutamine (4 mM) supplemented with 10% heat-inactivated Fetal Bovine Serum, 1% non-essential amino acids, and 730 nM puromycin, and seeded at a density of 5 × 10^5 cells in a 75 cm^2 flask. After 5 days, cells were trypsinized and resuspended in the complete medium to a final concentration of 600 × 10^3 cells/mL. Of the cell suspension, 400 µL was added to each well of an HTS 24-Multiwell Insert System and 25 mL of prewarmed complete medium was added to the feeder tray. Caco-2 cells were incubated in the Multiwell Insert System for 6–10 days before the transport experiments. The medium in the filter plate and feeder tray was refreshed every other day. Prior to the transport experiment, the integrity of the monolayer was verified by measuring the transepithelial electrical resistance (TEER) for every well using a Millicell-ERS system ohm meter. The final TEER values were within the range of 150–600 Ω × cm^2, as required for the assay conditions. The 24-well insert plate was removed from its feeder plate and placed in a new sterile 24-well transport analysis plate. The inserts were washed with PBS after medium aspiration. Ketoprofen, atenolol, digoxin, and quinidine were used as reference compounds.
To determine transport rates in the basolateral (B)-to-apical (A) direction, 1000 μL of the test compound solutions was added into the wells of the transport analysis plate, and the wells in the filter plate were filled with 300 μL of buffer (apical compartment).
The effect of the inhibitor on the Pgp-mediated transport of the tested compounds was assessed by determining the bidirectional transport in the presence or absence of verapamil. The Caco-2 cells were preincubated for 30 min at 37 °C with 100 μM of verapamil in both apical and basolateral compartments. After removal of the preincubation medium, the test compounds with verapamil (100 μM) in transport buffer were added in donor wells, while the receiver wells were filled with the appropriate volume of transport buffer with 100 μM of verapamil. The final amounts of test and reference compounds were 10 μM each. The plates were incubated for 90 min at 37 °C under continuous shaking at 100 rpm. Aliquots of 75 μL were taken from the donor and receiver compartments for LC–MS/MS analysis. All samples were mixed with 2 volumes of acetonitrile followed by protein sedimentation by centrifuging at 10,000 rpm for 10 min. Supernatants were analyzed using the HPLC system coupled with a tandem mass spectrometer.

A short description of data set [1]: Aqueous (kinetic, nephelometric) solubility in PBS. The format is physicochemical. On the procedure: Aliquots of 5 µL of 20.00 mM, 10.00 mM, 5.00 mM, 2.50 mM, 1.25 mM, 0.63 mM, 0.31 mM, 0.16 mM DMSO stock solutions of the control (highly soluble 2′-deoxy-5-fluorouridine and insoluble raloxifen hydrochloride) and the test compounds were loaded in 96-well microplates with clear flat bottoms in duplicates. Then, 250 µL of PBS was dispensed into each well using a Multidrop Combi dispenser to reach the concentrations of 400.0 µM, 200.0 µM, 100.0 µM, 50.0 µM, 25.0 µM, 12.5 µM, 6.25 µM, 3.125 µM for each compound with 2% final DMSO. Then, the resulting solutions were incubated for 15 min at room temperature. The effective range of this assay is approximately 5–200 µM. The solubility of each compound was calculated using the dedicated fitting algorithm. The physical base of nephelometric titration fitting is based on the quick increase in turbidity when a concentration of the tested compound reaches its solubility level. An intersection of the regression line of the high-level turbidity points with the calculated baseline was plotted for each compound. The baseline is a linear regression line plotted for fully soluble control compound DOFU. Each concentration point signal of the test article was compared with the corresponding signal of DOFU. […]

As for `O=C(NC12CC3CC(CC(C3)C1)C2)NS(=O)(=O)c1ccc(OC(F)(F)F)cc1` [Compound 4f], in the data set “Caco-2 permeability” (A to B, read-out: Caco-2 Permeability Apical to Basal (Papp)), the Papp A→B at 90 min, 10 µM turned out to be 14.9 ×10⁻⁶ cm/s. In addition, the Papp B→A at 90 min, 10 µM in “Caco-2 permeability” (B to A, read-out: Caco-2 Permeability Basal to Apical (Papp)) came to 12.6 ×10⁻⁶ cm/s. In addition, the solubility (in general, how much of the substance goes into solution per volume) at 15 min in data set [1] (PBS, pH 7.4, aqueous buffer, kinetic from dmso stock, read-out: Aq. Solubility pH = 7.4) worked out at 53 µg/mL (≈ 127 µM). Also, in data set [1] (pH 7.4), the “aqueous solubility (in words)” value is “moderate aqueous solubility”.
